Reference: patent US12616203B2, “Use of 3-isoxazolidinones compounds as selective herbicides” (FMC Corporation, priority 2014, dated 2026)

What was measured:
weeds; barley and wheat = assay: Ex40 POST greenhouse; assay type: in vivo; settings: rate in the words
Description: (§1) Treatments were applied to barley and wheat crops.
(§2) Non-ionic surfactant (NIS) was added to all treatments at 0.5% v/v. All plant species were direct seeded into 3″ plastic pots using metro-mix as growth media. At treatment common lambsquarters was 1.75″, common chickweed was 2″, wild mustard was 2.25″, wild oat was 5.5″, wild buckwheat was 2-5″, Italian ryegrass was 2-3″, wheat was 5.5″ and barley was 4.5″ in height. Plants were watered well before application and not watered 24 h after application. Plants were watered and fertilized routinely after treatment application. Each treatment was replicated four times. Treated flats were placed in randomized block design in the greenhouse.

[1] = tested on: weeds; cotton, lentil, mung bean, bush bean, and cowpea; assay: Ex33 PRE greenhouse; assay type: in vivo; settings: rate in the words
Description: ANTHEM® (fluthiacet-methyl, 0.69% plus pyroxasulfone, 22.61%) was included as a standard at labeled rate, Fluthiacet-methyl at 4.9 g ai/ha and pyroxasulfone at 165 g ai/ha. […] The following weeds were screened, Palmer amaranth, Pennsylvania smartweed, velvetleaf, green foxtail, morningglory, Italian ryegrass, prickly sida, and yellow nutsedge. Crops screened were cotton, lentil, mung bean, bush bean, and cowpea. […] Thereafter flats were watered and fertilized routinely.

Italian ryegrass (IR) = assay: Ex2 PRE greenhouse, % control; assay type: in vivo, Lolium perenne. multiflorum; settings: 28 DAT, g ai/ha by row: r12-40 2,4-DC 31.25/62.5/125/250/375 (3 rows each) + metazachlor 250/500/750 (cycling)
Description: Test compositions containing 2,4 DC Example 1B and metazachlor (Butisan® S, 43.1% active ingredient, BASF) and mixtures of 2-(2,4-dichlorophenyl)methyl-4,4-dimethyl-3-isoxazolidinone and metazachlor, were diluted with water to provide the appropriate test rate concentrations.
The test crops were wheat and canola (Brassica napus), the test weeds were Italian ryegrass (IR) (Lolium perenne. multiflorum), annual bluegrass (AB) (Poa annua), common lambsquarters (CL) (Chenopodium album), littleseed canarygrass (LC) (Phalaris minor), common chickweed (CC) (Stellaria media), and corn poppy (CP) (Papaver rhoeas).
For pre-emergence testing, four disposable fiber flats (6″ by 10″) for each rate of application of each herbicide solution were filled with top soil, to which seeds of each species were planted in furrows made by a template pressed on the top of the soil. The furrows were covered with soil after planting the seed and were watered well before application of the test compounds.
Fiber flats designated for treatment were placed in a spray chamber having a static platform and a movable sprayer and height of the spray nozzle was 10.5 inches above the soil level. Once the sprayer was calibrated using water for spray volume of 30 gallons per acre, flats were sprayed with sprayer at a speed to receive a coverage equivalent of 30 gallons per acre. The application rates are those shown in Table 1 below for the individual herbicidal solutions and the herbicide compositions of the present invention. The pre-emergence flats were immediately placed in the greenhouse and watered lightly after treatment. Thereafter they were regularly watered and fertilized for the duration of the test.
The control of weeds was evaluated in each experimental test at 21 days after treatment (DAT) for corn poppy and wheat and 28 DAT for all other species. The results, shown as an average of the replications were compared with results observed in untreated control flats in the same tests.
Percent control was determined by a method similar to the 0 to 100 rating system disclosed in “Research Methods in Weed Science,” 2nd ed., B. Truelove, Ed.; Southern Weed Science Society; Auburn University, Auburn, Ala., 1977.

[2] = tested on: weeds; Corn (var. Viking); assay: Ex15 PRE greenhouse; assay type: in vivo; settings: rate in the words
Description: The weeds tested in this study were redroot pigweed (Amaranthus retroflexus, AMARE), Jimsonweed (Datura stramonium, DATST), black nightshade (Solanum nigrum, SOLNI), large crabgrass (Digitaria sanguinalis, DIGSA), Pennsylvania smartweed (Polygonum pensylvanicum, POLPY), horseweed (Conyza canadensis, ERICA), wild buckwheat (Polygonum convolvulus, POLCO). The crop tested was Corn (var. Viking).
To determine PRE efficacy and corn injury, five rates of each 2,4 DC (36.7% CS) and S-metolachlor (Dual II Magnum®, 82.4%) were applied either alone or as tank-mix. 2,4 DC was applied at 0, 125, 170, 210, or 250 g ai/ha and S-metolachlor was applied at 0, 267, 534, 801, or 1070 g ai/ha. Additional treatments included application of premix of pyroxasulfone plus fluthiacet-methyl (Anthem™ 23.3%) at 169.9 g ai/ha and tank-mix of mesotrione (Callisto®, 40%) at 123 g plus S-metolachlor at 1252 g. Treatments were applied just after the planting of large crabgrass, Jimsonweed, black nightshade, redroot pigweed, Pennsylvania smartweed, horseweed, wild buckwheat, and corn.
Flats were watered and fertilized routinely after treatment application. Each treatment was replicated three times. […] Corn injury was rated for bleaching and stunting.

Velvetleaf = assay: Ex37 PRE 2,4-DC + atrazine, % control 28 DAT, Colby; assay type: in vivo, Abutilon theophrasti
Description: S-metolachlor (DUAL II MAGNUM®, 82.4%) at 525 g ai/h plus atrazine at 560 g ai/h was included as a standard for comparison. […] Thereafter flats were watered and fertilized routinely.

Barley = assay: Ex40 POST 2,4-DC + metsulfuron-methyl, crop injury 7 DAT; assay type: in vivo
Description: as §1, §2

weeds; Wheat and Barley = assay: Ex14 POST greenhouse; assay type: in vivo; settings: 28 DAT, rate in the words
Description: The study further assessed post crop safety on Wheat and Barley.
Nonionic surfactant at 0.5% (v/v) was included with commercial standards application. No adjuvant was applied with any other treatments. All plant species were direct seeded into 3″ plastic pots using metro-mix as growth media. At treatment application common lambsquarters was 1.75″, common chickweed was 2″, wild mustard was 2.25″, wild oat was 5.5″, wild buckwheat was 2-5″, Italian ryegrass was 2-3″, wheat was 5.5″, and barley was 4.5″ in height. Plants were watered well before application and not watered 24 h after application. Plants were watered and fertilized routinely after treatment application. Each treatment was replicated four times.

sedges = assay: Ex26 PRE greenhouse; assay type: in vivo; settings: 28 DAT, weed and rate in the words
Description: Treatments were applied at the time of planting to yellow nutsedge, purple nutsedge, and benghal dayflower. […] Flats were watered and fertilized routinely after treatment application.

Structure (SMILES): CC1(C)CON(Cc2ccc(Cl)cc2Cl)C1=O [2,4-DC, 2-(2,4-dichlorophenyl)methyl-4,4-dimethyl-3-isoxazolidinone]
- weed control / crop safety in words (weeds; barley and wheat): applied alone was safe at all rates on both wheat and barley
- weed control / crop safety in words [1]: controlled prickly sida, at 125 g controlled green foxtail
- weed control / crop safety in words ([1]; listed as 2, 4 DC): applied alone PRE was safe on cotton, mung bean, bush bean, and cowpea at all rates, lentil was not safe at any rate
- % Control IR (Italian ryegrass (IR); r42-46 2,4-DC 31.25/62.5/125/250/375, r47-49 metazachlor 250/500/750, 31.25 g ai/ha): 57%
- % Control IR (Italian ryegrass (IR); r42-46 2,4-DC 31.25/62.5/125/250/375, r47-49 metazachlor 250/500/750, 62.5 g ai/ha): 68%
- % Control IR (Italian ryegrass (IR); r42-46 2,4-DC 31.25/62.5/125/250/375, r47-49 metazachlor 250/500/750, 125 g ai/ha): 85%
- % Control IR (Italian ryegrass (IR); r42-46 2,4-DC 31.25/62.5/125/250/375, r47-49 metazachlor 250/500/750, 250 g ai/ha): 98%
- % Control IR (Italian ryegrass (IR); r42-46 2,4-DC 31.25/62.5/125/250/375, r47-49 metazachlor 250/500/750, 375 g ai/ha): 99%
- weed control / crop safety in words [2]: alone controlled large crabgrass at 170 g ai/ha or 250 g and it was safe on corn at all rate
- X (% control, 2,4-DC alone) (Velvetleaf; PRE, 2,4-DC 50 g ai/ha): 18%
- X (% control, 2,4-DC alone) (Velvetleaf; PRE, 2,4-DC 100 g ai/ha): 19%
- X (% control, 2,4-DC alone) (Velvetleaf; PRE, 2,4-DC 200 g ai/ha): 90%
- X (% crop injury, 2,4-DC alone) (Barley; POST, 2,4-DC 125 g ai/ha): 4%
- X (% crop injury, 2,4-DC alone) (Barley; POST, 2,4-DC 170 g ai/ha): 6%
- X (% crop injury, 2,4-DC alone) (Barley; POST, 2,4-DC 210 g ai/ha): 8%
- X (% crop injury, 2,4-DC alone) (Barley; POST, 2,4-DC 250 g ai/ha): 14%
- weed control / crop safety in words (weeds; Wheat and Barley): applied alone did not control any weed in the assay, and was safe at all rates on both wheat and barley
- weed control in words (sedges): alone did not provide control of sedges at any rate except benghal dayflower at 400 g
